Results on 3 molecules are retold here after publication PMC8308845, “Discovery of Novel Chemical Series of OXA-48 β-Lactamase Inhibitors by High-Throughput Screening” (Pharmaceuticals, 2021).

In general, AC50 refers to the concentration at which the activity in the assay is half-maximal.

Test [1] addresses T1, OXA-48 (Klebsiella pneumoniae, UniProt Q6XEC0).
T1 construct: made in house; host or cells: E. coli BL21(DE3), T7 expression system
Kind of test: OXA-48 primary enzymatic assay (nitrocefin substrate, fluorescence-quenching readout). In kind it is biochemical. The following applies: dose–response, median of triplicate wells; 15 min preincubation, 25 µM nitrocefin. How it is done: After an initial pilot run (three plates, consisting of 960 randomly selected compounds), the primary screening of the subset plates was carried out at 20 µM in single point against OXA-48 enzyme in a nitrocefin-based assay, using the fluorescence-quenching readout. This enzymatic assay employs the cephalosporin nitrocefin as OXA-48 substrate and takes advantage of the fluorescent properties of white microtiter plates. Chromogenic nitrocefin is hydrolyzed by β-lactamases to yield a product with increased absorbance properties (~495 nm) that quenches the plate fluorescence by absorbing the plate’s emission light. In this assay, test compounds that inhibit OXA-48 catalytic activity are predicted to reduce nitrocefin quenching of plate fluorescence, resulting in a quantitative increase in well fluorescence (ON-system for inhibitors). The nitrocefin-based epi-absorbance readout system has been successfully applied in HTS campaigns on other β-lactamases, such as IMP-1 and VIM-2, with the identification of inhibitors belonging to novel scaffolds displaying a favourable degree of selectivity and sub-micromolar potency.
The screening results were expressed as activity percent. […] Overall, the primary assay robustness was good, with Robust Z Prime factor (RZ′) equal to 0.86.
In total, 256 active molecules (125 from the subset and 131 from the full set) were then assayed in dose–response at eight concentrations from 60 to 0.002 µM with interplate triplicate data points.
The blaOXA gene coding for the OXA-48 ß-lactamase, originally cloned from the K. pneumonia 11978 (a clinical isolate from Istanbul Faculty Hospital, Istanbul, Turkey) was overexpressed via a T7 expression system in E. coli BL21(DE3), and its product, native protein, (final yield of 30 mg/L of culture) was subjected to several purification steps, including ion-exchange chromatography with Q-Sepharose and 20 mM Tris-HCl buffer (pH 9.0), followed by chromatography with S-Sepharose columns and 100 mM sodium phosphate buffer (pH 5.8). Elution of the beta-lactamase was performed with a K2SO4 gradient. Peaks of beta-lactamase activity were concentrated and were dialyzed with 100 mM phosphate buffer (pH 7.0). The OXA-48 enzyme was purified to homogeneity (with a degree of purity around 95.4%.)-as measured by 12% SDS PAGE [23]. OXA-48 protein stock solution (2 mg/mL) was finally prepared in 20 mM Hepes (pH 8,1). OXA-48 β-lactamase specific activity was measured by following the hydrolysis of 100 μM nitrocefin (ε: 17,000 M-1 cm^−1 at 482 nm; Δε: 15,000 M-1 cm^−1 at 482 nm) and corresponding to 60.45 μmoles min^−1 mg^−1 of OXA-48 (kcat = 28.85 s^−1) enzyme. A MW of 28,147 g/mol, calculated from the enzyme sequence was confirmed by MALDI-TOF analysis with a Mass error of ± 2.8 Da.
The primary assay was developed to monitor the enzymatic activity of OXA-48 taking advantage of the spectroscopic properties of white microtiter plates (Optiplate-384, PerkinElmer, #6007290), as indicated by Zuck et al.. Nitrocefin is chromogenic substrate for beta-lactamases with λmax = 395 nm (yellow). Upon hydrolysis by OXA-48, nitrocefin yields (2R)-2-[(R)-carboxy[2-(thiophen-2-yl)acetamido]methyl]-5-[(E)-2-(2,4-dinitrophenyl)ethenyl]-3,6-dihydro-2H-1,3-thiazine-4-carboxylic acid, with increased absorbance properties at λmax = 495 nm. Spectroscopic features of the reaction product are exploited to quench the plate intrinsic fluorescence by absorbing the plate’s emission light, which can be monitored by exciting the reaction at 485 nm and recording the emission at 520 nm. Therefore, the primary assay for HTS was an ON-assay, in which compounds targeting OXA-48 were predicted to elicit an increase of the fluorescence signal.
The primary assay was performed in reaction buffer (20 mM Hepes pH 8.0, 12.5 mM NaCl, 0.005% BSA, 0.0005% Brij-35) in the presence of 0.0014 ng/µL OXA-48 and 25 µM nitrocefin in a final volume of 20 µL/well in 384 MTP format. […]

The target in test [2] is T1, OXA-48. Kind of test: Time-dependent inhibition of OXA-48. Format: biochemical. The following applies: for dependence of AC50 on preincubation time with OXA-48: preincubation 0, 15, 30, 60, 90, 120, 180, 240 min. How it is done:
On this basis, compounds ID1 and ID2 as well as the irreversible reference inhibitor tazobactam were tested in dose–response against OXA-48 lactamase, by pre-incubating the compounds with the enzyme at different time points (0, 15, 30, 60, 90, 120, 180, 240 min) before starting the reaction upon addition of the nitrocefin substrate.
Experimental conditions were identical to the ones applied for the primary assay for HTS: 20 μL of 2X compounds with 1% DMSO; 10 μL 4X enzyme (0.0014 ng/µL OXA-48 final concentration) were dispensed into preincubation plate. The reaction buffer was: 20 mM Hepes pH 8.0, 12.5 mM NaCl, 0.005% BSA-pf, 0.0005% Brij-35.
Preincubation time was for a period spanning from 0 up to 240′ at rt between enzyme and compounds and for 15′ at rt between enzyme and control wells. The reactions were started by transferring of 15 μL of enzyme-compounds or enzyme-control from preincubation plate into assay plate adding 5 μL 4X nitrocefin substrate (25 µM final concentration) at different time points, at 0 (i.e., no preincubation)–15–30–60–90–120–180–240 min of preincubation between OXA-48 and compounds. Reading was at PHERAstar (BMG Labtechnologies), in kinetic for up to 60′ (λex: 485 nm; λem: 520 nm). Data were analyzed to determine the respective AC50 values obtained at all the tested preincubation time points.
b. If the AC50 value was inversely proportional to the preincubation time with OXA-48, the compound was assigned as non-reversible inhibitor.

T1 sequence (Q6XEC0 23-265, looked up): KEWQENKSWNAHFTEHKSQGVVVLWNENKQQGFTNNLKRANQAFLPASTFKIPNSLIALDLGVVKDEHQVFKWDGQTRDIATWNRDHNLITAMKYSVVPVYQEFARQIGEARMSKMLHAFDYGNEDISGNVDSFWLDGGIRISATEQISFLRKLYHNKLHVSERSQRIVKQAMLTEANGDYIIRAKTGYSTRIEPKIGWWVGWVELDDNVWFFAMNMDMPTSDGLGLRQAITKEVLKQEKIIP

In turn, `O=C(O)c1ccc(C=Nn2c(S)nnc2-c2ccccc2)cc1` [ID1] returned an AC50 in test [1] of 1140 nM. The “dependence of AC50 on preincubation time with OXA-48” value (from here on “dependence of AC50”) in test [2] is “independent on the preincubation time”.

In the case of `CCc1ccc(-c2n[nH]c3nc(-c4ccc(C(=O)O)cc4)cc(C(=O)O)c23)cc1` [ID2], the AC50 in test [1] was determined as 990 nM. Also, the “dependence of AC50” value in test [2] is given as “independent on the preincubation time”.

Take `C[C@]1(Cn2ccnn2)[C@H](C(=O)O)N2C(=O)C[C@H]2S1(=O)=O` [tazobactam, reference compound]: in test [1], the AC50 turned out to be 840 nM. Further, the “AC50 after preincubation relative to AC50 without preincubation” value in test [2] (plateau after 90 min of preincubation) is reported as “almost six-fold lower”. For the same molecule, in test [2], the “dependence of AC50” value is “inversely proportional time-dependent inhibition”.
